Measured values published in ChEMBL document CHEMBL3885861, “Open TG-GATES”.

Species on record: Rattus norvegicus
Experiment: Open TG-GATES - Regimen: Single
Assay type: toxicity, organism-based, Sprague-Dawley
Set-up: regimen Single, gender Male, age 6 weeks
Conditions: in vivo, po, route gavage; for APTT / Bas / Eos / Fbg / Hb / Ht / Lym / MCH / MCHC / MCV / Mono / Neu / PT / Plat / Ret / WBC: tissue Blood; for KIDNEY_L / KIDNEY_R / KIDNEY_TOTAL: tissue Kidney; for LIVER: tissue Liver; for ALP / ALT / AST / BUN / CRE / DBIL / GLC / IP / K / LDH / Na / PL / RALB / TBIL / TC / TG / TP / gamma-GTP / Ca: tissue Plasma
[1] = 0 mg/kg, 3 h, dose level Control
[2] = 0 mg/kg, 6 h, dose level Control
[3] = 0 mg/kg, 9 h, dose level Control
[4] = 0 mg/kg, 24 h, dose level Control

CN(C)CCCN1c2ccccc2CCc2ccc(Cl)cc21 [CLOMIPRAMINE]
TERMINAL_BW [1]: 213.4 g
APTT [1]: 23.8 s
Bas [1]: 0.4%
Eos [1]: 0.8%
Fbg [1]: 259.6 mg/dL
Hb [1]: 13.8 g/dL
Ht [1]: 42.8%
Lym [1]: 77.4%
MCH [1]: 21.4 pg
MCHC [1]: 32.3%
MCV [1]: 66.4 fL
Mono [1]: 3.6%
Neu [1]: 16.8%
PT [1]: 13.6 s
Plat [1]: 115.6 x10_4/uL
Ret [1]: 8.2%
WBC [1]: 86.3 x10_2/uL
KIDNEY_L [1]: 1 g
KIDNEY_R [1]: 1 g
KIDNEY_TOTAL [1]: 1.9 g
LIVER [1]: 9.4 g
ALP [1]: 1695.8 IU/L
ALT [1]: 43.8 IU/L
AST [1]: 82.8 IU/L
BUN [1]: 9.6 mg/dL
CRE [1]: 0.2 mg/dL
DBIL [1]: 0.006 mg/dL
GLC [1]: 182.4 mg/dL
IP [1]: 9.7 mg/dL
K [1]: 4.2 meq/L
LDH [1]: 98.4 IU/L
Na [1]: 140.2 meq/L
PL [1]: 140 mg/dL
RALB [1]: 2.5 g/dL
TBIL [1]: 0.074 mg/dL
TC [1]: 75.4 mg/dL
TG [1]: 54.2 mg/dL
TP [1]: 5.2 g/dL
gamma-GTP [1]: 1 IU/L
TERMINAL_BW [2]: 213.9 g
APTT [2]: 16.6 s
Bas [2]: 0%
Eos [2]: 0.8%
Fbg [2]: 254.2 mg/dL
Hb [2]: 13.7 g/dL
Ht [2]: 42.3%
Lym [2]: 76.2%
MCH [2]: 21 pg
MCHC [2]: 32.3%
MCV [2]: 65.1 fL
Mono [2]: 2.8%
Neu [2]: 19.2%
PT [2]: 13.9 s
Plat [2]: 125.3 x10_4/uL
Ret [2]: 8.3%
WBC [2]: 83.4 x10_2/uL
KIDNEY_L [2]: 1 g
KIDNEY_R [2]: 1 g
KIDNEY_TOTAL [2]: 2 g
LIVER [2]: 9.4 g
ALP [2]: 1630.4 IU/L
ALT [2]: 38.6 IU/L
AST [2]: 76.6 IU/L
BUN [2]: 9.2 mg/dL
CRE [2]: 0.2 mg/dL
Ca [2]: 10.8 mg/dL
DBIL [2]: 0.006 mg/dL
GLC [2]: 178.2 mg/dL
IP [2]: 9.8 mg/dL
K [2]: 4.2 meq/L
LDH [2]: 90 IU/L
Na [2]: 140.4 meq/L
PL [2]: 142.6 mg/dL
RALB [2]: 2.6 g/dL
TBIL [2]: 0.07 mg/dL
TC [2]: 71.8 mg/dL
TG [2]: 77.8 mg/dL
TP [2]: 5.4 g/dL
gamma-GTP [2]: 1 IU/L
TERMINAL_BW [3]: 213.6 g
APTT [3]: 16.7 s
Bas [3]: 0.2%
Eos [3]: 1%
Fbg [3]: 245 mg/dL
Hb [3]: 13.4 g/dL
Ht [3]: 41%
Lym [3]: 78.2%
MCH [3]: 21 pg
MCHC [3]: 32.6%
MCV [3]: 64.4 fL
Mono [3]: 1.6%
Neu [3]: 18%
PT [3]: 14 s
Plat [3]: 133.7 x10_4/uL
Ret [3]: 8.1%
WBC [3]: 86.1 x10_2/uL
KIDNEY_L [3]: 1 g
KIDNEY_R [3]: 1 g
KIDNEY_TOTAL [3]: 2 g
LIVER [3]: 8.5 g
ALP [3]: 1606 IU/L
ALT [3]: 39.8 IU/L
AST [3]: 79.8 IU/L
BUN [3]: 9.8 mg/dL
CRE [3]: 0.2 mg/dL
DBIL [3]: 0.008 mg/dL
GLC [3]: 181 mg/dL
IP [3]: 10.1 mg/dL
K [3]: 4 meq/L
LDH [3]: 109.8 IU/L
Na [3]: 140.6 meq/L
PL [3]: 139.2 mg/dL
RALB [3]: 2.4 g/dL
TBIL [3]: 0.07 mg/dL
TC [3]: 75.4 mg/dL
TG [3]: 51.2 mg/dL
TP [3]: 5.1 g/dL
gamma-GTP [3]: 1 IU/L
TERMINAL_BW [4]: 229.8 g
APTT [4]: 18 s
Bas [4]: 0%
Eos [4]: 0.8%
Fbg [4]: 257.8 mg/dL
Hb [4]: 13.5 g/dL
Ht [4]: 41.6%
Lym [4]: 82.6%
MCH [4]: 20.5 pg
MCHC [4]: 32.4%
MCV [4]: 63.4 fL
Mono [4]: 2.8%
Neu [4]: 12.6%
PT [4]: 13.4 s
Plat [4]: 129 x10_4/uL
Ret [4]: 7.4%
WBC [4]: 82.9 x10_2/uL
KIDNEY_L [4]: 1 g
KIDNEY_R [4]: 1 g
KIDNEY_TOTAL [4]: 2.1 g
LIVER [4]: 11 g
ALP [4]: 1743.2 IU/L
ALT [4]: 45.8 IU/L
AST [4]: 73.4 IU/L
BUN [4]: 14 mg/dL
CRE [4]: 0.2 mg/dL
Ca [4]: 10.9 mg/dL
DBIL [4]: 0.01 mg/dL
GLC [4]: 176.4 mg/dL
IP [4]: 8.2 mg/dL
K [4]: 4.1 meq/L
LDH [4]: 80.2 IU/L
Na [4]: 140.8 meq/L
PL [4]: 161.6 mg/dL
RALB [4]: 2.6 g/dL
TBIL [4]: 0.062 mg/dL
TC [4]: 83.2 mg/dL
TP [4]: 5.5 g/dL
gamma-GTP [4]: 1 IU/L
TERMINAL_BW (10 mg/kg, 3 h, dose level Low): 216.3 g
